# Results as given in US10829730B2, “Microdevice platform recapitulating hypoxic tissue microenvironments” (UNIVERSITY OF SOUTHERN CALIFORNIA, priority 2017, dated 2020).
# “Also recorded” adds a separate entry of the source.
# How the values were obtained:
# [1] = system: MCF-7 human breast cancer cells; assay: Hypoxia-activated drug assay: live-dead staining (calcein-AM / propidium iodide) of micropatterned cells, normoxic or in hypoxia microdevice; assay type: cell-based; details: 50 μM TPZ; for live-cell fraction (areal fraction of positive calcein staining), inside versus outside the 1.5 mm radius: N=3, one-way ANOVA; for cytotoxicity indicated by positive nuclear propidium iodide (PI) staining: 24 hours after 12 hours pre-conditioning
# Method: To assess the response of cancer cells to drug treatment under a hypoxic gradient, as well as the feasibility of the microdevice for drug screening assays, cell viability assays with TPZ treatment in the microdevice were performed. […] Cells were pre-conditioned with hypoxia in the microdevice for 12 hours, which was considered sufficient to induce cellular adaptations to hypoxia^47, before being treated with TPZ for 24 hours. […] As dead cells can be washed off in the staining process, the areal fraction of living cells with positive calcein staining was chosen as the readout for TPZ cytotoxicity. The live-cell fractions in the micropatterns inside and outside the 1.5 mm radius were quantified, which corresponds to the pillar radius.
# MCF-7 human breast cancer cells were purchased from ATCC and maintained in […] (DMEM; Thermo Fisher) supplemented with 10% fetal bovine serum (FBS; Omega Scientific), 100 U mL^−1 penicillin, and 100 μg mL^−1 streptomycin (Thermo Fisher), in a humidified incubator maintained at 37° C. and 5% CO2. Round glass coverslips (12 mm in diameter; Fisher Scientific) were immersed in hot commercial detergent, rinsed with deionized water, and dried with air. The coverslips were then treated with plasma (Harrick Plasma, Model PDC-001-HP) and silanized with 1% aminopropyltriathoxysilane (Fisher Scientific) for 15 minutes. Upon extensive rinsing, coverslips were dried with air and cured at 100° C. for 1 hour. Next, silanized coverslips were coated with 0.1 mg mL^−1 rat tail collagen type I (Corning) in 4° C. for 3 hours under shaking conditions. Micropattern designs were modeled in CorelDrawX7 (Corel Corporation) and fabricated into 250 μm thick PDMS stencils (Rogers Corporation) by a laser engraver (Epilog). Stencil design was a circular feature of 5 mm diameter cut into a 13 mm circle. Stencils were then thoroughly rinsed in 70% isopropanol and deionized water, air-dried, and aligned onto the collagen-coated coverslips. The whole substrate was blocked with 0.2% w/v pluronic F-127 (Sigma) diluted in 1×PBS, rinsed with PBS, then with DMEM. Next, 300,000 MCF-7 human breast cancer cells (ATCC) were seeded. After cells adhered, PDMS stencils were peeled off and the glass coverslips with micropatterned cancer cells were briefly rinsed^41.
# Micropatterned cells were pre-conditioned in normoxic conditions (no microdevice) or hypoxic conditions (microdevice) for 12 hours. Next, media was replaced with 50 μM TPZ (Sigma Aldrich), a hypoxia-activated anticancer prodrug, for 24 hours. Cells were rinsed with fresh media and stained for calcein-AM (Sigma Aldrich) and propidium iodide (PI) (Thermo Fisher Scientific) for 30 minutes at room temperature. Cell survival was quantified by the fraction of cells expressing positive calcein signal.
# For the drug assay, the fraction of calcein positive cells (live cells) within (corresponding to hypoxia-induced cells under the pillar) and outside (corresponding to near-normoxic cells outside the pillar) the 1.5 mm radius was quantified. The fraction of PI positive cells (dead cells) was also quantified. The respective fractions were plotted against micropattern radii, similarly to previous image analyses. All data are plotted using Prism (GraphPad Software, Inc.).
# [2] = system: hypoxic human cancer cells; details: hypoxic vs normoxic human cancer cells; cited from earlier work
compound,measurement,setting,value
"Nc1n[n+]([O-])c2ccccc2[n+]1[O-] [TPZ, tirapazamine]","live-cell fraction (areal fraction of positive calcein staining), inside versus outside the 1.5 mm radius","[1]; hypoxia microdevice, 24 hours",significant reduction
same,cytotoxicity indicated by positive nuclear propidium iodide (PI) staining,"[1]; hypoxic samples (microdevice), MCF-7",cytotoxicity caused by TPZ
same,fate of cells under severe hypoxia near the pillar center (live-dead staining),"[1]; microdevice, ≤0.03 mol/m^3 oxygen level by COMSOL simulation, 24 hours, MCF-7",eliminated; also recorded: death zone
same,"live-cell fraction (areal fraction of positive calcein staining), inside versus outside the 1.5 mm radius","[1]; normoxic condition (no microdevice), 24 hours",not statistically different
same,cytotoxicity indicated by positive nuclear propidium iodide (PI) staining,"[1]; normoxic samples (no microdevice), MCF-7",cytotoxicity caused by TPZ; also recorded: TPZ-induced cytotoxicity
same,selectivity at targeting hypoxic human cancer cells versus their normoxic counterparts,[2],15- to 50 fold
